# Experiment: Breakdown of active substance during preparation of wax premix by the melt method
# Type: physicochemical
# Details: comparative Example C, montan wax melt at 110° C.
# Description: Preparation of a wax premix by the melt method.
# 32 parts by weight of montan wax in sheet form are heated, in a mixer, at 110° C. to give a melt. To this melt there are added
# 15 parts by weight of cyclosulfamuron in the form of particles with an average diameter of 5μ with stirring at 110° C. The resulting suspension is stirred at high speed for 10 minutes at 110° C. and then treated portionwise with
# 26.5 parts by weight of highly-disperse silica while stirring is continued at full mixer speed. The resulting flowable powder is cooled to room temperature with stirring and with addition of
# 26.5 parts by weight of talc.
# This gives a wax premix consisting of agglomerated particles. Approximately 10 percent by weight of the cyclosulfamuron present are broken down.
smiles,measurement,value
COc1cc(OC)nc(NC(=O)NS(=O)(=O)Nc2ccccc2C(=O)C2CC2)n1 [cyclosulfamuron],cyclosulfamuron present broken down,Approximately 10 percent by weight

# From patent US20030108584A1, “Method for producing wax premixes” (priority 2000, published 2003)
